Test results taken from patent publication US8404648B2, “Polypeptides KXK and their use” (Sederma, priority 2006, dated 2013).
Values joined by “and” are separate entries in the source; they are usually repeats but may differ in a detail not shown here. Equal values may be shown once. Where a SMILES comes first, the peptide text is derived from it. Where no end group is shown, it is not given here. The star is where a group is joined. Ela = elaidoyl, CCCCCCCC/C=C/CCCCCCCC(=O)*; Palmitoyl = CCCCCCCCCCCCCCCC(=O)*

Tests used:
Type in all cases: cell-based
[1] = test system: Normal Human Dermal Fibroblasts (NHDF); assay: Survival estimated on cell layer using a fluorescent probe; settings: 3 days of incubation
Protocol: (§1) Principle of the study: Normal Human Dermal Fibroblasts (NHDF) were cultivated in an appropriate culture medium (i.e. complete DMEM with fetal calf serum). After cell anchorage, cell layers were rinsed with saline buffer and contact with molecules to be tested were performed in a complete DMEM without fetal calf serum. This medium contained ascorbate (sodium salt) and beta-aminopropionitrile, monofumarate. After 3 days of incubation, supernatants were collected and frozen. Survival was estimated on cell layer using a fluorescent probe. Collagen I was estimated using an original direct ELISA method, Fibronectin and Collagen IV were estimated using ELISA commercial kits.

[2] = test system: Collagen I synthesis, Normal Human Dermal Fibroblasts (NHDF); assay: Collagen I synthesis by NHDF, direct ELISA on supernatants after 3 days; settings: for Variation of Collagen I synthesis (mean, in % of negative control): NHDF, 3 days; for Collagen I synthesis, result in words: vs negative control
Protocol: (§2) Products: Pal-KTFK (SEQ ID NO: 7), Ela-KTAK (SEQ ID NO: 9) and Ela-KTFK (SEQ ID No: 8) were tested from 2 to 6 ppm, and Pal-KAvaK was tested from 1 to 4 ppm. Solvent=DMSO 0.08%. TGF-beta1 10^−6%, was the positive control for collagen I and fibronectin studies.
as §1
(§3) Results: Statistical analysis were performed on Collagen I data (n=5/assay) or fibronectin data (n=5/assay) or Collagen IV data (n=5/assay). Results obtained with molecules were compared to negative control. All data are in ng/10E6 cells. A Student t test for non paired values was used; significativity was obtained if p<0.05 or p<0.01.

[3] = test system: Fibronectin synthesis, Normal Human Dermal Fibroblasts (NHDF); assay: Fibronectin synthesis by NHDF, commercial ELISA kit on supernatants after 3 days; settings: for Variation of Fibronectin synthesis (mean, in % of negative control): NHDF, 3 days; for Fibronectin synthesis, result in words: vs negative control
Protocol: as §2, §1, §3

[4] = test system: Collagen IV synthesis, Normal Human Dermal Fibroblasts (NHDF); assay: Collagen IV synthesis by NHDF, commercial ELISA kit on supernatants after 3 days; settings: for Variation of Collagen IV synthesis (mean, in % of negative control): NHDF, 3 days
Protocol: as §2, §1, §3

[5] = positive control, TGF-beta1 10^−6% (10 ppb)

Row | Compound | Variation of Collagen I synthesis (mean, in % of negative control) ([2]; 2 ppm) | Variation of Collagen I synthesis (mean, in % of negative control) ([2]; 4 ppm) | Variation of Collagen I synthesis (mean, in % of negative control) ([2]; 6 ppm) | Collagen I synthesis, result in words ([2]; 6 ppm) | Variation of Fibronectin synthesis (mean, in % of negative control) ([3]; 2 ppm) | Variation of Fibronectin synthesis (mean, in % of negative control) ([3]; 4 ppm) | Fibronectin synthesis, result in words ([3]; 4 ppm) | Variation of Fibronectin synthesis (mean, in % of negative control) ([3]; 6 ppm) | Variation of Collagen IV synthesis (mean, in % of negative control) ([4]; 2 ppm) | Variation of Collagen IV synthesis (mean, in % of negative control) ([4]; 4 ppm) | other results
1 | CCCCCCCCCCCCCCCC(=O)N[C@@H](CCCCN)C(=O)N[C@H](C(=O)N[C@@H](Cc1ccccc1)C(=O)N[C@@H](CCCCN)C(=O)O)[C@@H](C)O [Pal-KTFK, Pal-Lys-Thr-Phe-Lys] (Palmitoyl-KTFK-OH) |  |  |  |  |  |  |  |  |  |  | maximal concentration accepted by the cells [1]: ~6 ppm
2 | Ela-Lys-Thr-Ala-Lys (Ela-KTAK) [N-elaidoyl tetrapeptide Lys-Thr-Ala-Lys] | 6% | 18% | 45% | increase | 16% | 32% | increase | 31% |  |  | 
3 | Ela-Lys-Thr-Phe-Lys (Ela-KTFK) [N-elaidoyl tetrapeptide Lys-Thr-Phe-Lys] | 6% | 19% | 49% | significant increase | 10% | 25% |  | 42% | 10% | 7% | Variation of Collagen IV synthesis (mean, in % of negative control) ([4]; 6 ppm): 7%; Fibronectin synthesis, result in words ([3]; 6 ppm): significant increase
4 | Pal-Lys-Ava-Lys [Pal-KAvaK] | 14% | 49% |  |  | 15% | 54% | increase |  | 9% | 23% | Variation of Collagen IV synthesis (mean, in % of negative control) ([4]; 1 ppm): 8%; Collagen IV synthesis, result in words ([4]; 4 ppm, vs negative control): increase; Variation of Collagen I synthesis (mean, in % of negative control) ([2]; 1 ppm): 1%; Collagen I synthesis, result in words ([2]; 4 ppm): increase; Variation of Fibronectin synthesis (mean, in % of negative control) ([3]; 1 ppm): 14%
5 | TGF-beta: TGF-beta1 10^−6%, the positive control for collagen I and fibronectin studies [reference compound] |  |  |  |  |  |  |  |  |  |  | Variation of Collagen IV synthesis (mean, in % of negative control) ([4]; 10 ppb): 12%; Collagen I synthesis, result in words [2, 5]: significant increase; Variation of Fibronectin synthesis (mean, in % of negative control) ([3]; 10 ppb): 124% and 85% and 87%; Fibronectin synthesis, result in words [3, 5]: significant increase
